Source: patent US5578596A, “2-alkoxy-5,6,7,8-tetrahydroquinoxaline derivatives, and production method and use thereof” (Asahi Kasei Kogyo Kabushiki Kaisha, priority 1992, dated 1996)
pKi: −log10 of the molar value.

What was measured:
[1] = target: T1, serotonin 1A (5HT1A) receptor (Rattus norvegicus, UniProt P19327); assay: Affinity for serotonin 1A (5HT1A) receptor: inhibition of 3H-8-OH-DPAT binding to rat hippocampal membrane fraction; conditions: test compound as hydrochloride
T1 construct: The resultant precipitate was used as a rat hippocampal membrane fraction in the following procedures; from tissue; host or cells: hippocampal membrane fraction of male SD rat (7 weeks old; animals from Charles River)
T1 sequence (P19327 1-422): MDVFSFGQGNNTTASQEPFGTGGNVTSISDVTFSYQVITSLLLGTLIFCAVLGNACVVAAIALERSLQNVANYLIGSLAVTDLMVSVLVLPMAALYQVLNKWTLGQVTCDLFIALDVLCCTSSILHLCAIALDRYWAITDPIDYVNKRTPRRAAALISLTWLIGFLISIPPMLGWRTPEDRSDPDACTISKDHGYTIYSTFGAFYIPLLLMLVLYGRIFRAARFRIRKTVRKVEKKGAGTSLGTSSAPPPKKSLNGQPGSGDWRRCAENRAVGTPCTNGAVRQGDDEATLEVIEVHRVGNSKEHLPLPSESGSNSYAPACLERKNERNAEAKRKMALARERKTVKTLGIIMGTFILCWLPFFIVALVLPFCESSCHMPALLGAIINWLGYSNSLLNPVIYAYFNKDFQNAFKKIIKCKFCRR
Protocol: 1. Affinity for serotonin 1A (5HT1A) receptor
(A) Preparation of rat hippocampal membrane fraction
A male SD strain rat (7-week old; Charles River) was decapitated, and brain was taken out therefrom quickly. 50 mM Tris-HCl buffer (pH 7.4) was added to the brain under ice cooling to obtain a suspension. The resultant suspension was homogenized, and then subjected to centrifugation at 48000 g for 15 minutes, to thereby obtain a precipitate. The precipitate was resuspended in the same Tris-HCl buffer as used above. The resultant suspension was incubated at 30° C. for 20 minutes to decompose endogenous serotonin of the rat hippocampal membrane, followed by centrifugation at 48000 g for 15 minutes to thereby obtain a precipitate. The resultant precipitate was used as a rat hippocampal membrane fraction in the following procedures.
(B) Method for the evaluation of the binding ability of ^3 H-8-hydroxy-dipropylaminotetralin (^3 H-8-OH-DPAT) to serotonin 1A receptor
The rat hippocampal membrane fraction prepared in step (A) above (about 100 to 200 μg in terms of proteins) was reacted with 0.5 nM (final concentration) ^3 H-8-OH-DPAT (which is commercially available from DuPont-NEN Research Products) and 10 μM (final concentration) pargyline (which is commercially available from Sigma Chemical Company) at 30° C. for 30 minutes to effect a reaction. The resultant reaction mixture was subjected to suction filtration using a Whatman GF/C filter, to thereby terminate the reaction. The radio-activity of ^3 H-8-OH-DPAT adsorbed on the filter was determined using a liquid scintillation counter. The obtained value is regarded as a total amount (TB) of specifically binding ^3 H-8-OH-DPAT and non-specifically binding ^3 H-8-OH-DPAT.
On the other hand, substantially the same procedure as mentioned above was repeated, except that 10 μM (final concentration) serotonin was added to the ^3 H-8-OH-DPAT and pargyline. The radioactivity of ^3 H-8-OH-DPAT adsorbed on the filter was determined in the same manner as mentioned above. The obtained value is regarded as the amount (NB) of non-specifically binding ^3 H-8-OH-DPAT.
Further, substantially the same procedure as mentioned above was repeated, except that, instead of serotonin, a test compound was used in a predetermined concentration. The radioactivity of ^3 H-8-OH-DPAT adsorbed on the filter was determined in the same manner as mentioned above. The obtained value is regarded as the amount (DTB) of binding ^3 H-8-OH-DPAT.
(C) Calculation of Ki value
The inhibition ratio of the test compound (at a certain concentration) against the binding of 3H-8-OH-DPAT (the inhibition ratio is hereinafter referred to simply as "binding inhibition ratio") was calculated according to the following formula:
Binding inhibition ratio (%)=100-(DTB-NB).div.(TB-NB)×100
With respect to each of the test compounds, the binding inhibition ratios at various concentrations (from a higher concentration to a lower concentration) were determined. The binding inhibition ratios were plotted, taking the logarithmic value of the concentration of test compound as the abscissa value, and the binding inhibition ratio as the ordinate value. Then, a curve was drawn by non-linear least square method.
The Ki value was determined according to the following formula:
[L] is the concentration (0.2 nM) of a radioactive ligand (^3 H-8-OH-DPAT) used in the test;

[2] = system: Suncus murinus (motion sickness emesis); assay: Activities against motion sickness: acceleration-stimulus induced emesis in suncus; type: in vivo; conditions: 30 min before acceleration-stimulus (4 cm, 1 Hz), observed 10 min, hydrochloride, 4 suncus
From the text: The activities of individual compounds against motion sickness were examined using Suncus murinus. Suncus murinus is a small animal belonging to the Soricidae family. It has been known that suncus is likely to suffer from motion sickness and is susceptible to occurrence of emesis [see "Seitai-no-kagaku (Science of living body)", 41, 538 (1990)]. Suncus is likely to show symptoms like the symptoms of human motion sickness under the stimulus of simple acceleration, finally leading to the occurrence of emesis. It has been recognized that motion sickness is caused by the occurrence of disorder in information, such as vision, equilibrium sense and the like, or by a stimulus which has never been memorized. Further, it has been recognized that the disorder in the inner earvestibular nucleus pathway and the high-order function of brain take part in the occurrence of motion sickness. Therefore, medicines capable of suppressing the occurrence of emesis of suncus would be useful for preventing and treating motion sickness, space sickness, emesis, dizziness and the like.
In this test, test compounds were individually administered intraperitoneally to suncus.
The time for occurrence of emesis was measured with respect to each of the test compounds, and the results are shown in Table 3.

| SMILES | pKi [1] | Time for occurrence of emesis ([2]; 3 mg/kg intraperitoneal) | Time for occurrence of emesis ([2]; 1 mg/kg intraperitoneal) |
| --- | --- | --- | --- |
| c1cnc(N2CCN(CCCCOc3cnc4c(n3)CCCC4)CC2)nc1 [Compound 301, 2-[4-{4-(2-Pyrimidinyl)-1-piperazinyl}butoxy]-5,6,7,8-tetrahydroquinoxaline] | 8.22 | Emesis did not occur |  |
| Cc1nc2c(nc1OCCCCN1CCN(c3ccccn3)CC1)CCCC2 [Compound 409] | 7.80 |  |  |
| Cc1nc2c(nc1OCCCCN1CCN(c3ncccn3)CC1)CCCC2 [Compound 410] | 7.62 |  |  |
| Cc1cc(C)nc(N2CCN(CCCCOc3cnc4c(n3)CCCC4)CC2)n1 [Compound 481, 2-[4-{4-(4,6-Dimethyl-2-pyrimidinyl)-1-piperazinyl}butoxy]-5,6,7,8-tetrahydroquinoxaline] | 8.28 |  |  |
| Clc1cccc(N2CCN(CCCCOc3cnc4c(n3)CCCC4)CC2)n1 [Compound 500, 2-[4-{4-(6-Chloro-2-pyridyl)-1-piperazinyl}butoxy]-5,6,7,8-tetrahydroquinoxaline] | 8.68 |  | Emesis did not occur |
| Cc1cccc(N2CCN(CCCCOc3cnc4c(n3)CCCC4)CC2)n1 [Compound 501, 2-[4-{4-(6-Methyl-2-pyridyl)-1-piperazinyl}butoxy]-5,6,7,8-tetrahydroquinoxaline] | 9.22 |  | Emesis did not occur |
| Clc1cccnc1N1CCN(CCCCOc2cnc3c(n2)CCCC3)CC1 [Compound 502, 2-[4-{4-(3-Chloro-2-pyridyl)-1-piperazinyl}butoxy]-5,6,7,8-tetrahydroquinoxaline] | 7.89 |  |  |
| Cc1ccnc(N2CCN(CCCCOc3cnc4c(n3)CCCC4)CC2)n1 [Compound 504, 2-[4-{4-(4-Methyl-2-pyrimidinyl)-1-piperazinyl}butoxy]-5,6,7,8-tetrahydroquinoxaline] | 8.41 |  | Emesis did not occur |
| c1ccc(N2CCN(CCCCCOc3cnc4c(n3)CCCC4)CC2)nc1 [Compound 511, 2-[5-{4-(2-Pyridyl)-1-piperazinyl}pentoxy]-5,6,7,8-tetrahydroquinoxaline] | 8.08 |  |  |
| c1cnc(N2CCN(CCCCCOc3cnc4c(n3)CCCC4)CC2)nc1 [Compound 512, 2-[5-{4-(2-pyrimidinyl)-1-piperazinyl}pentoxy]-5,6,7,8-tetrahydroquinoxaline] | 7.64 |  |  |
| N#Cc1cccnc1N1CCN(CCCCOc2cnc3c(n2)CCCC3)CC1 [Compound 514, 2-[4-{4-(3-Cyano-2-pyridyl)-1-piperazinyl}butoxy]-5,6,7,8-tetrahydroquinoxaline] | 8.32 |  |  |
| CCOc1cccc(N2CCN(CCCCOc3cnc4c(n3)CCCC4)CC2)n1 [Compound 524, 2-[4-{4-(6-Ethoxy-2-pyridyl)-1-piperazinyl}butoxy]-5,6,7,8-tetrahydroquinoxaline] | 8.72 |  | Emesis did not occur |
| c1ccc(N2CCN(CCCOc3cnc4c(n3)CCCC4)CC2)nc1 [Compound 537, 2-[3-{4-(2-Pyridyl)-1-piperazinyl}propoxy]-5,6,7,8-tetrahydroquinoxaline] | 7.85 |  |  |
| c1cnc(N2CCN(CCCOc3cnc4c(n3)CCCC4)CC2)nc1 [Compound 538, 2-[3-{4-(2-pyrimidinyl)-1-piperazinyl}propoxyl]-5,6,7,8-tetrahydroquinoxaline] | 7.60 |  |  |
| COc1cccc(N2CCN(CCCCOc3cnc4c(n3)CCCC4)CC2)n1 [Compound 539, 2-[4-{4-(6-Methoxy-2-pyridyl)-1-piperazinyl}butoxy]-5,6,7,8-tetrahydroquinoxaline] | 8.89 |  | Emesis did not occur |
| COc1cc(OC)nc(N2CCN(CCCCOc3cnc4c(n3)CCCC4)CC2)n1 [Compound 549, 2-[4-{4-(4,6-Dimethoxy-2-pyrimidinyl)-1-piperazinyl}butoxy]-5,6,7,8-tetrahydroquinoxaline] | 8.18 |  |  |
| COc1cccnc1N1CCN(CCCCOc2cnc3c(n2)CCCC3)CC1 [Compound 557, 2-[4-{4-(3-Methoxy-2-pyridyl)-1-piperazinyl}butoxy]-5,6,7,8-tetrahydroquinoxaline] | 8.82 |  |  |
| Cc1cc(C)c(C#N)c(N2CCN(CCCCOc3cnc4c(n3)CCCC4)CC2)n1 [Compound 561, 2-[4-{4-(3-Cyano-4-6-dimethyl-2-pyridyl)-1-piperazinyl}butoxy]-5,6,7,8-tetrahydroquinoxaline] | 7.80 |  |  |
| COc1cc(C)nc(N2CCN(CCCCOc3cnc4c(n3)CCCC4)CC2)n1 [Compound 562, 2-[4-{4-(4-Methoxy-6-methyl-2-pyrimidinyl)-1-piperazinyl}butoxy]-5,6,7,8-tetrahydroquinoxaline] | 7.96 | Emesis did not occur |  |
| Cc1cc(C)nc(N2CCN(CCCCOc3cnc4c(n3)CCCC4)CC2)c1 [Compound 569, 2-[4-{4-(4,6-Dimethyl-2-pyridyl)-1-piperazinyl}butoxy]-5,6,7,8-tetrahydroquinoxaline] | 8.17 |  |  |
| Cc1ccc(C)c(N2CCN(CCCCOc3cnc4c(n3)CCCC4)CC2)n1 [Compound 598, 2-[4-{4-(3,6-Dimethyl-2-pyridyl)-1-piperazinyl}butoxy]-5,6,7,8-tetrahydroquinoxaline] | 7.60 |  |  |
| CCCOc1cccc(N2CCN(CCCCOc3cnc4c(n3)CCCC4)CC2)n1 [Compound 629, 2-[4-{4-(6-Propoxy-2-pyridyl)-1-piperazinyl}butoxy]-5,6,7,8-tetrahydroquinoxaline] | 8.74 | Emesis did not occur |  |
| CC(C)Oc1cccc(N2CCN(CCCCOc3cnc4c(n3)CCCC4)CC2)n1 [Compound 630, 2-[4-{4-(6-Isopropoxy-2-pyridyl)-1-piperazinyl}butoxy]-5,6,7,8-tetrahydroquinoxaline] | 8.52 | Emesis did not occur |  |
| FC(F)(F)c1ccnc(N2CCN(CCCCOc3cnc4c(n3)CCCC4)CC2)c1 [Compound 639, 2-[4-{4-(4-Trifluoromethyl-2-pyridyl)-1-piperazinyl}butoxy]-5,6,7,8-tetrahydroquinoxaline] | 7.96 |  |  |
| FC(F)(F)c1cccc(N2CCN(CCCCOc3cnc4c(n3)CCCC4)CC2)n1 [Compound 640, 2-[4-{4-(6-Trifluoromethyl-2-pyridyl)-1-piperazinyl}butoxy]-5,6,7,8-tetrahydroquinoxaline] | 8.28 |  |  |
